# Tested on: M17—3TAU(P301L) cells
# Test: Neuroblastoma tauopathy model: inhibition of TAU-induced cytotoxicity (LDH)
# Assay type: cell-based
# Details: Homo sapiens, 168 h; inhibition of TAU-induced toxicity (LDH), 7 days differentiation with retinoic acid
# How it was run: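 BE-M17 neuroblastoma cells stably expressing human TAU-P301L, differentiated with RA (2.5 μM in added medium) for 7 days at 37 °C with compounds at a range of concentrations. Cytotoxicity as supernatant LDH over total LDH (Cytotox 96); EC50 from dose-dependent inhibition curve.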
row,Structure (SMILES),EC50
1,"FC(F)(F)c1cccc(CCN2CCN(c3nc(-c4cccc(Cl)c4)ns3)CC2)c1 [Example 142, 1-[3-(3-Chloro-phenyl)-[1,2,4]thiadiazol-5-yl]-4-[2-(3-trifluoromethyl-phenyl)-ethyl]-piperazine]",3.7 nM
2,"N#Cc1ccc(-c2nsc(N3CCN(CCc4ccc(F)c(F)c4)CC3)n2)cc1 [Example 138, 4-(5-{4-[2-(3,4-Difluoro-phenyl)-ethyl]piperazin-1-yl}-[1,2,4]thiadiazol-3-yl)-benzonitrile]",18.2 nM
3,"Cc1ncc(-c2nsc(N3CCN(CCc4ccccc4)CC3)n2)cn1 [Example 178, 3-(2-methylpyrimidin-5-yl)-5-(4-phenethylpiperazin-1-yl)-1,2,4-thiadiazole]",13.2 nM
4,"Fc1ccc(-c2nsc(N3CCN(CCC4CCOCC4)CC3)n2)cc1F [Example 164, 3-(3,4-difluorophenyl)-5-(4-(2-(tetrahydro-2H-pyran-4-yl)ethyl)piperazin-1-yl)-1,2,4-thiadiazole]",3.4 nM
5,"FC(F)(F)c1cccc(CCN2CCN(c3nc(-c4cncc(Cl)c4)ns3)CC2)c1 [Example 149, 1-[3-(5-Chloro-pyridin-3-yl)-[1,2,4]thiadiazol-5-yl]-4-[2-(3-trifluoromethyl-phenyl)-ethyl]-piperazine]",3 nM
6,"Clc1cc(-c2nsc(N3CCN(CCc4ccccc4)CC3)n2)ccn1 [Example 170, 3-(2-chloropyridin-4-yl)-5-(4-phenethylpiperazin-1-yl)-1,2,4-thiadiazole]",0.7 nM
7,"Cc1ccccc1CN1CCN(c2nc(-c3cccc(C#N)c3)ns2)CC1 [Example 119, 3-{5-[4-(2-Methyl-benzyl)-piperazin-1-yl]-[1,2,4]thiadiazol-3-yl}-benzonitrile]",25 nM
8,"Cc1ccc(-c2nsc(N3CCN(CCc4ccccc4)CC3)n2)cn1 [Example 94, 1-[3-(6-Methyl-pyridin-3-yl)-[1,2,4]thiadiazol-5-yl]-4-phenethyl-piperazine]",9.5 nM
9,"Fc1ccc(CCN2CCN(c3nc(-c4cccc(F)c4)ns3)CC2)cc1 [Example 86, 1-[2-(4-Fluoro-phenyl)-ethyl]-4-[3-(3-fluoro-phenyl)-[1,2,4]thiadiazol-5-yl]-piperazine]",8.9 nM
10,"Fc1ccc(-c2nsc(N3CCN(CCc4ccc(C(F)(F)F)cc4)CC3)n2)cc1F [Example 146, 1-[3-(3,4-Difluoro-phenyl)-[1,2,4]thiadiazol-5-yl]-4-[2-(4-trifluoromethyl-phenyl)-ethyl]-piperazine]",60.1 nM
11,"COc1ccc(CCN2CCN(c3nc(-c4cccc(F)c4)ns3)CC2)cn1 [Example 100, 1-[3-(3-Fluoro-phenyl)-[1,2,4]thiadiazol-5-yl]-4-[2-(6-methoxy-pyridin-3-yl)-ethyl]-piperazine]",4.3 nM
12,"Clc1cccc(-c2nsc(N3CCN(CCc4ccccc4)CC3)n2)c1 [Example 82, 1-[3-(3-Chloro-phenyl)-[1,2,4]thiadiazol-5-yl]-4-phenethyl-piperazine]",4 nM
13,"Cc1cc(-c2nsc(N3CCN(CCc4ccc(F)c(F)c4)CC3)n2)cnn1 [Example 175, 5-(4-(3,4-difluorophenethyl)piperazin-1-yl)-3-(6-methylpyridazin-4-yl)-1,2,4-thiadiazole]",13.4 nM
14,"COc1cccc(CCN2CCN(c3nc(-c4cccc(Cl)c4)ns3)CC2)c1 [Example 48, 1-[3-(3-Chloro-phenyl)-[1,2,4]thiadiazol-5-yl]-4-[2-(3-methoxy-phenyl)-ethyl]-piperazine]",0.6 nM
15,"COc1ccc(C(C)CN2CCN(c3nc(-c4ccc(Cl)cc4)ns3)CC2)cc1 (stereo not shown) [Example 72, 1-[3-(4-Chloro-phenyl)-[1,2,4]thiadiazol-5-yl]-4-[2-(4-methoxy-phenyl)-propyl]-piperazine]",94.3 nM
16,"Clc1cccc(-c2nsc(N3CCN(CCC4CCOCC4)CC3)n2)c1 [Example 165, 3-(3-chlorophenyl)-5-(4-(2-(tetrahydro-2H-pyran-4-yl)ethyl)piperazin-1-yl)-1,2,4-thiadiazole]",1.1 nM
17,"Cc1ccc(-c2nsc(N3CCN(Cc4ccc(Cl)cc4Cl)CC3)n2)cc1 [Example 3, 1-(2,4-Dichloro-benzyl)-4-(3-p-tolyl-[1,2,4]thiadiazol-5-yl)-piperazine]",987 nM
18,"N#Cc1cccc(-c2nsc(N3CCN(CCc4ccc(Cl)cc4)CC3)n2)c1 [Example 113, 3-(5-{4-[2-(4-Chloro-phenyl)-ethyl]piperazin-1-yl}-[1,2,4]thiadiazol-3-yl)-benzonitrile]",17.1 nM
19,"Clc1ccc(CCN2CCN(c3nc(-c4ccc(Cl)cn4)ns3)CC2)cc1 [Example 124, 1-[2-(4-Chloro-phenyl)-ethyl]-4-[3-(5-chloro-pyridin-2-yl)-[1,2,4]thiadiazol-5-yl]-piperazine]",458 nM

row,Structure (SMILES),EC50
1,"N#Cc1ccc(-c2nsc(N3CCN(CCc4ccc(C(F)(F)F)cc4)CC3)n2)cc1 [Example 147, 4-(5-{4-[2-(4-Trifluoromethyl-phenyl)-ethyl]-piperazin-1-yl}-[1,2,4]thiadiazol-3-yl)-benzonitrile]",176 nM
2,"Cc1ccc(-c2nsc(N3CCN(Cc4ccccc4C)CC3)n2)cn1 [Example 150, 1-(2-Methyl-benzyl)-4-[3-(6-methyl-pyridin-3-yl)-[1,2,4]thiadiazol-5-yl]-piperazine]",185 nM
3,"COc1cccc(-c2nsc(N3CCN(Cc4ccccc4C)CC3)n2)c1 [Example 13, 1-[3-(3-Methoxy-phenyl)-[1,2,4]thiadiazol-5-yl]-4-(2-methyl-benzyl)-piperazine]",215 nM
4,"COc1ccc(CCN2CCN(c3nc(-c4cccc(Cl)c4)ns3)CC2)cn1 [Example 93, 1-[3-(3-Chloro-phenyl)-[1,2,4]thiadiazol-5-yl]-4-[2-(6-methoxy-pyridin-3-yl)-ethyl]-piperazine]",0.9 nM
5,"COc1ccc(CCN2CCN(c3nc(-c4ccc(Cl)cc4F)ns3)CC2)cc1 [Example 56, 1-[3-(4-Chloro-2-fluoro-phenyl)-[1,2,4]thiadiazol-5-yl]-4-[2-(4-methoxy-phenyl)-ethyl]-piperazine]",5.5 nM
6,"COc1cc(CCN2CCN(c3nc(-c4ccc(C#N)cc4)ns3)CC2)ccn1 [Example 116, 4-(5-{4-[2-(2-Methoxy-pyridin-4-yl)-ethyl]-piperazin-1-yl}-[1,2,4]thiadiazol-3-yl)-benzonitrile]",14.1 nM
7,"COc1cc(CCN2CCN(c3nc(-c4cnnc(C)c4)ns3)CC2)ccn1 [Example 176, 5-(4-(2-(2-methoxypyridin-4-yl)ethyl)piperazin-1-yl)-3-(6-methylpyridazin-4-yl)-1,2,4-thiadiazole]",19.5 nM
8,"FC(F)(F)c1cccc(CCN2CCN(c3nc(-c4cc(Cl)ccn4)ns3)CC2)c1 [Example 159, 3-(4-chloropyridin-2-yl)-5-(4-(3-(trifluoromethyl)phenethyl)piperazin-1-yl)-1,2,4-thiadiazole]",119 nM
9,"COc1cc(CCN2CCN(c3nc(-c4ccc(Cl)cc4)ns3)CC2)ccn1 [Example 75, 1-[3-(4-Chloro-phenyl)-[1,2,4]thiadiazol-5-yl]-4-[2-(2-methoxy-pyridin-4-yl)-ethyl]-piperazine]",13.4 nM
10,"Fc1ccc(CCN2CCN(c3nc(-c4cc(Cl)ccn4)ns3)CC2)cc1F [Example 157, 3-(4-chloropyridin-2-yl)-5-(4-(3,4-difluorophenethyl)piperazin-1-yl)-1,2,4-thiadiazole]",29 nM
11,"COc1ccc(CC(C)N2CCN(c3nc(-c4ccc(Cl)cc4)ns3)CC2)cc1 (stereo not shown) [Example 73, 1-[3-(4-Chloro-phenyl)-[1,2,4]thiadiazol-5-yl]-4-[2-(4-methoxy-phenyl)-1-methyl-ethyl]-piperazine]",0.9 nM
12,"COc1cccc(CCN2CCN(c3nc(-c4ccncc4)ns3)CC2)c1 [Example 20, 1-[2-(3-Methoxy-phenyl)-ethyl]-4-(3-pyridin-4-yl-[1,2,4]thiadiazol-5-yl)-piperazine]",174 nM
13,"Fc1ccc(CCN2CCN(c3nc(-c4ccc(Cl)cc4)ns3)CC2)cc1 [Example 24, 1-[3-(4-Chloro-phenyl)-[1,2,4]thiadiazol-5-yl]-4-[2-(4-fluoro-phenyl)-ethyl]-piperazine]",0.7 nM
14,"CCOc1ccc(CCN2CCN(c3nc(-c4ccc(Cl)cc4)ns3)CC2)cc1 [Example 50, 1-[3-(4-Chloro-phenyl)-[1,2,4]thiadiazol-5-yl]-4-[2-(4-ethoxy-phenyl)-ethyl]-piperazine]",169 nM
15,"COc1cccc(CCN2CCN(c3nc(-c4cc(Cl)cc(Cl)c4)ns3)CC2)c1 [Example 31, 1-[3-(3,5-Dichloro-phenyl)-[1,2,4]thiadiazol-5-yl]-4-[2-(3-methoxy-phenyl)-ethyl]-piperazine]",21.1 nM
16,"Clc1ccc(CCN2CCN(c3nc(-c4cncc(Cl)c4)ns3)CC2)cc1 [Example 132, 1-[2-(4-Chloro-phenyl)-ethyl]-4-[3-(5-chloro-pyridin-3-yl)-[1,2,4]thiadiazol-5-yl]-piperazine]",3.3 nM
17,"Clc1cncc(-c2nsc(N3CCN(CCc4ccccc4)CC3)n2)c1 [Example 130, 1-[3-(5-Chloro-pyridin-3-yl)-[1,2,4]thiadiazol-5-yl]-4-phenethyl-piperazine]",0.9 nM
18,"Fc1ccc(CCN2CCN(c3nc(-c4ccc(Cl)cc4)ns3)CC2)cc1F [Example 134, 1-[3-(4-Chloro-phenyl)-[1,2,4]thiadiazol-5-yl]-4-[2-(3,4-difluoro-phenyl)-ethyl]-piperazine]",37.8 nM
